What was measured:
Test in all cases: KINOMEscan competition binding
Conditions in all cases: compound 10.0 µM
AURKC (human) = AURKC (human) (UniProt Q9UQB9)
TNNI3K (human) = TNNI3K (human) (UniProt Q59H18)
MAP3K12 (human) = MAP3K12 (human) (UniProt Q12852)
GRK1 (human) = GRK1 (human) (UniProt Q15835)
CDK17 (human) = CDK17 (human) (UniProt Q00537)
NEK3 (human) = NEK3 (human) (UniProt P51956)
RPS6KA1 KD1 (human) = RPS6KA1 KD1 (human) (UniProt Q15418)
CDK9 (human) = CDK9 (human) (UniProt P50750)
PDGFRB (human) = PDGFRB (human) (UniProt P09619)
NEK11 (human) = NEK11 (human) (UniProt Q8NG66)
PRKD1 (human) = PRKD1 (human) (UniProt Q15139)
[1] = system: LRRK2 (human), Q5S007 [G2019S]
DDR2 (human) = DDR2 (human) (UniProt Q16832)
CDC42BPA (human) = CDC42BPA (human) (UniProt Q5VT25)
STK38 (human) = STK38 (human) (UniProt Q15208)
NEK4 (human) = NEK4 (human) (UniProt P51957)
STK16 (human) = STK16 (human) (UniProt O75716)
PLK4 (human) = PLK4 (human) (UniProt O00444)
CLK3 (human) = CLK3 (human) (UniProt P49761)
PHKG1 (human) = PHKG1 (human) (UniProt Q16816)
PRKCE (human) = PRKCE (human) (UniProt Q02156)
FLT3 (human) = FLT3 (human) (UniProt P36888)
PRKAA1 (human) = PRKAA1 (human) (UniProt Q13131)
BRSK1 (human) = BRSK1 (human) (UniProt Q8TDC3)
MARK1 (human) = MARK1 (human) (UniProt Q9P0L2)
[2] = system: FLT3 (human), P36888 [D835Y]
GRK4 (human) = GRK4 (human) (UniProt P32298)
MAPK3 (human) = MAPK3 (human) (UniProt P27361)
STK35 (human) = STK35 (human) (UniProt Q8TDR2)
ADCK3 (human) = ADCK3 (human) (UniProt Q8NI60)
TTK (human) = TTK (human) (UniProt P33981)
TLK2 (human) = TLK2 (human) (UniProt Q86UE8)
MYO3A (human) = MYO3A (human) (UniProt Q8NEV4)
MAP3K10 (human) = MAP3K10 (human) (UniProt Q02779)
CAMK2D (human) = CAMK2D (human) (UniProt Q13557)
PRKCH (human) = PRKCH (human) (UniProt P24723)
[3] = system: FGFR3 (human), P22607 [G697C]
TXK (human) = TXK (human) (UniProt P42681)
PAK1 (human) = PAK1 (human) (UniProt Q13153)
[4] = system: EGFR (human), P00533 [G719C]

NEK4 (human), sequence (P51957 whole entry, looked up): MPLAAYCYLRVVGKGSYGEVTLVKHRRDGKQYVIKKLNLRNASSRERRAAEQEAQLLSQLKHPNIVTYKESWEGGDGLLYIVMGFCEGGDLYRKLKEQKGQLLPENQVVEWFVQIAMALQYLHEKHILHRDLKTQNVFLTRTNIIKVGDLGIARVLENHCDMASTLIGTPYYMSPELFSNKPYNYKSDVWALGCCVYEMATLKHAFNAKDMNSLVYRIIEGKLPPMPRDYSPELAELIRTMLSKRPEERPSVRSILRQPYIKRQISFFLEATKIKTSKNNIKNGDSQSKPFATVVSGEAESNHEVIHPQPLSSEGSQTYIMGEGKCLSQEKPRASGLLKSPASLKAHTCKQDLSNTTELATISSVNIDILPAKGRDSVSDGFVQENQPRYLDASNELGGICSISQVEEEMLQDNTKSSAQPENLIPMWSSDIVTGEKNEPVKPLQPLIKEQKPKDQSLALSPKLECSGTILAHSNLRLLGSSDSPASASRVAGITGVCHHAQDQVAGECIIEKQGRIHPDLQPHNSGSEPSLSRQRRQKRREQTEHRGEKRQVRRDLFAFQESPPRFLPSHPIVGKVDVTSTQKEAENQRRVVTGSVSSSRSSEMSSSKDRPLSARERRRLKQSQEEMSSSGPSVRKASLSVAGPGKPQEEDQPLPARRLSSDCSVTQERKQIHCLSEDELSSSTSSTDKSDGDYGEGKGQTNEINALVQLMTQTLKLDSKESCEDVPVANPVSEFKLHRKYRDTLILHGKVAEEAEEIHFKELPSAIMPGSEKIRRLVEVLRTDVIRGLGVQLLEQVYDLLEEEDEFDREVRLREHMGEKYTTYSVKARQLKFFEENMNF
MYO3A (human), sequence (Q8NEV4 whole entry, looked up): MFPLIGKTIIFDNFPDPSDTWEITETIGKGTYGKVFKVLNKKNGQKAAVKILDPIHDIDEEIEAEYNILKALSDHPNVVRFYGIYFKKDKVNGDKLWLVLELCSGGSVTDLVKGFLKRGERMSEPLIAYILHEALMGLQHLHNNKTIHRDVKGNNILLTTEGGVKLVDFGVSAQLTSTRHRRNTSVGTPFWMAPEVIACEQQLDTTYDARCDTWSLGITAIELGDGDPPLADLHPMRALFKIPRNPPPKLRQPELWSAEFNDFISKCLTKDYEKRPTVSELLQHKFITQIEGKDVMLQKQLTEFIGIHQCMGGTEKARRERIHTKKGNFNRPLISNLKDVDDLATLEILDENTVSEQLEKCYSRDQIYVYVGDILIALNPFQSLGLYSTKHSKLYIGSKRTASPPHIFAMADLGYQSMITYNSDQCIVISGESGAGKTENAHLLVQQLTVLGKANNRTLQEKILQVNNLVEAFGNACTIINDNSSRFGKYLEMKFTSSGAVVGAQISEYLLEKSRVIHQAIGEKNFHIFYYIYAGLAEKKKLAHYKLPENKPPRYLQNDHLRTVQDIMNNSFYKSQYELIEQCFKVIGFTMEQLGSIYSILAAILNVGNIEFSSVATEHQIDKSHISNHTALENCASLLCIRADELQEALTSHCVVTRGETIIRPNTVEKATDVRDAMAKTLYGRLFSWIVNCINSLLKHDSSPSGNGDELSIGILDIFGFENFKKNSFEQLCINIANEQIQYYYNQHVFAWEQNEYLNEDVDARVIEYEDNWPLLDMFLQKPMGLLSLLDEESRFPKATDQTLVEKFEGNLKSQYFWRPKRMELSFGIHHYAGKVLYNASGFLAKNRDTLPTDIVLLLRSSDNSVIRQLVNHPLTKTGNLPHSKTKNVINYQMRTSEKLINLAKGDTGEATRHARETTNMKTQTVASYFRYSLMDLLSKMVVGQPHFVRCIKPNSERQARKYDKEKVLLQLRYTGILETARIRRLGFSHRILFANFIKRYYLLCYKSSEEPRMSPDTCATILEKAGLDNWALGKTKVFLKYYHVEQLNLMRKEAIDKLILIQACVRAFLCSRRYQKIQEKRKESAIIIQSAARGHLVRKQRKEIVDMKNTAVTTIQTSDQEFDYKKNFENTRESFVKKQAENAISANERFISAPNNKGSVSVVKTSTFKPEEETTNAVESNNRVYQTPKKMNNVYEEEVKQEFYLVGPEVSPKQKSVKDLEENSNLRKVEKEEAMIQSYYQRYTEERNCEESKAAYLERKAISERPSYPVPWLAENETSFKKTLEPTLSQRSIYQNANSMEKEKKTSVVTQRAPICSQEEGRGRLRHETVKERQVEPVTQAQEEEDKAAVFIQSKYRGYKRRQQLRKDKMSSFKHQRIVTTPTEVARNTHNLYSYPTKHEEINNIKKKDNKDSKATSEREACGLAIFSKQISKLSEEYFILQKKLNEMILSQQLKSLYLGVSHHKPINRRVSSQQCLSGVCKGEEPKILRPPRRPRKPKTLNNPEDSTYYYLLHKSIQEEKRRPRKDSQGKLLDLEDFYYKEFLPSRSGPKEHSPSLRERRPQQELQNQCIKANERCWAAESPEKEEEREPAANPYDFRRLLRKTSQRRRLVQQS
TNNI3K (human), sequence (Q59H18 whole entry, looked up): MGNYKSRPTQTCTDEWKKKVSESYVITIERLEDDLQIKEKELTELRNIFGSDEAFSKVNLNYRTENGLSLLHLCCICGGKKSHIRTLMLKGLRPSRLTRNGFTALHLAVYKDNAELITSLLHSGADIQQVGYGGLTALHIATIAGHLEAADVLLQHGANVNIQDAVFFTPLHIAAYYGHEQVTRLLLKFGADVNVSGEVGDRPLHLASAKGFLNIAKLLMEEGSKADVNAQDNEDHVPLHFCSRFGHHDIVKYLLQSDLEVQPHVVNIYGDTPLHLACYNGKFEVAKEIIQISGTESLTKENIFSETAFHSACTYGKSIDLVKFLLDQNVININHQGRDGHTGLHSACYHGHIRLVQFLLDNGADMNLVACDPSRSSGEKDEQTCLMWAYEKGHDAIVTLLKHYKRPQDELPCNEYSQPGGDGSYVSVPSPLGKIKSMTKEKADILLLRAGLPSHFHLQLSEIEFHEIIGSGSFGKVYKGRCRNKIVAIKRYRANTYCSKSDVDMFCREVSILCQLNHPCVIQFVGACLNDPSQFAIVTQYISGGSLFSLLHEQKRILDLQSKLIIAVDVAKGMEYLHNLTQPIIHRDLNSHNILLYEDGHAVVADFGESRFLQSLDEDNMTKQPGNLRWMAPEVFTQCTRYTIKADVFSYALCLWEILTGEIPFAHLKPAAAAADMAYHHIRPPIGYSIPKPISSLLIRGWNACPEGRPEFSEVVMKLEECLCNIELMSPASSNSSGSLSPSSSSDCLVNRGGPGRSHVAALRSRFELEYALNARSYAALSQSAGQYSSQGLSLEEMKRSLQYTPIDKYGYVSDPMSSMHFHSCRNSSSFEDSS
MAP3K12 (human), sequence (Q12852 whole entry, looked up): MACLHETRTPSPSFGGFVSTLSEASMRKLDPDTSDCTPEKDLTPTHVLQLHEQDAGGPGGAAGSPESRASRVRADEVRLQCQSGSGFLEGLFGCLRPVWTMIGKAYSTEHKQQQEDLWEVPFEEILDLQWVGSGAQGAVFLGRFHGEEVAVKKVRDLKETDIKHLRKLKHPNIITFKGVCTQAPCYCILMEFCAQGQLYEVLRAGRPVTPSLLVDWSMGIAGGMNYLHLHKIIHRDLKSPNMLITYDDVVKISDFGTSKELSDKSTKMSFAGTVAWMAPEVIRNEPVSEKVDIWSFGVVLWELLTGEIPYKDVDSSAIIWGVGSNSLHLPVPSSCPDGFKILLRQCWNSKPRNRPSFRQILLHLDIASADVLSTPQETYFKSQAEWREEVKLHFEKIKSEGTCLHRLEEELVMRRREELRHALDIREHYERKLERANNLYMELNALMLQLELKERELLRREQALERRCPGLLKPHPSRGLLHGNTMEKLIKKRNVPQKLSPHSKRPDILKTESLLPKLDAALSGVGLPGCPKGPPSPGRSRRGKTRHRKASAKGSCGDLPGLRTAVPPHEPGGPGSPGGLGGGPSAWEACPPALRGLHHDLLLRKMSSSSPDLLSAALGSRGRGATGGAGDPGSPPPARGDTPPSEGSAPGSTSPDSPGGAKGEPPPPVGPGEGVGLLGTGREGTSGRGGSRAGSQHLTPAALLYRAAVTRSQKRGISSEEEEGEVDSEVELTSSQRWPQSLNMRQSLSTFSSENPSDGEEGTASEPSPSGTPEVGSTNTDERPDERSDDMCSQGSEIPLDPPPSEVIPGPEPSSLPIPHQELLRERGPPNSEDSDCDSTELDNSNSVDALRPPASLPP
NEK3 (human), sequence (P51956 whole entry, looked up): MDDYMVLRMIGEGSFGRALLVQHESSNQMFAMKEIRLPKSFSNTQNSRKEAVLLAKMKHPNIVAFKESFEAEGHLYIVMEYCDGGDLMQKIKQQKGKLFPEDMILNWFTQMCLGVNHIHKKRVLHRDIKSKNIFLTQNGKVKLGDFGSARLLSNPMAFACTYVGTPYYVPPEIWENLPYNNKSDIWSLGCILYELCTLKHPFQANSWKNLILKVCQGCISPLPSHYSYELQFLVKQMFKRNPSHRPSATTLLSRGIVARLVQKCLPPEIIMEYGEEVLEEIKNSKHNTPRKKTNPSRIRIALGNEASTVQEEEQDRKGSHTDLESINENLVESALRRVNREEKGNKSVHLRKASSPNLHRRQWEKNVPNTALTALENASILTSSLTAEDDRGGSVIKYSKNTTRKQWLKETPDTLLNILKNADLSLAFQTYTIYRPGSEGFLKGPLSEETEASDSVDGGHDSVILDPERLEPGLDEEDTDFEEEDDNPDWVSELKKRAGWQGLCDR
MAPK3 (human), sequence (P27361 whole entry, looked up): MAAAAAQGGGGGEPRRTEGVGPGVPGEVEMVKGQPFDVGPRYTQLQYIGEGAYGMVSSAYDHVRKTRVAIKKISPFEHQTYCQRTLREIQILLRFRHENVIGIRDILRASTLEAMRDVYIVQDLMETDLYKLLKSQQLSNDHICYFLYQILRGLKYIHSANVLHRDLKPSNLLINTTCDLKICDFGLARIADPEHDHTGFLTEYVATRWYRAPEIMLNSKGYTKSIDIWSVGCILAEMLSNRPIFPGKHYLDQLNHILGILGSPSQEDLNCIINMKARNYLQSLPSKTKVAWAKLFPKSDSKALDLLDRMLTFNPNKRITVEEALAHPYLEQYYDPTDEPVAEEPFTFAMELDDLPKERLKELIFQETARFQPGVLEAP

SMILES	kinase still bound, per cent of control (AURKC (human))	kinase still bound, per cent of control (TNNI3K (human))	kinase still bound, per cent of control (MAP3K12 (human))	kinase still bound, per cent of control (GRK1 (human))	kinase still bound, per cent of control (CDK17 (human))	kinase still bound, per cent of control (NEK3 (human))	kinase still bound, per cent of control (RPS6KA1 KD1 (human))	kinase still bound, per cent of control (CDK9 (human))	kinase still bound, per cent of control (PDGFRB (human))	kinase still bound, per cent of control (NEK11 (human))	kinase still bound, per cent of control (PRKD1 (human))	kinase still bound, per cent of control [1]	kinase still bound, per cent of control (DDR2 (human))	kinase still bound, per cent of control (CDC42BPA (human))	kinase still bound, per cent of control (STK38 (human))	kinase still bound, per cent of control (NEK4 (human))	kinase still bound, per cent of control (STK16 (human))	kinase still bound, per cent of control (CLK3 (human))	kinase still bound, per cent of control (PHKG1 (human))	kinase still bound, per cent of control (PRKCE (human))	also measured
CC(=O)c1c(C)c2cnc(Nc3ccc(N4CCNCC4)cn3)nc2n(C2CCCC2)c1=O	96%	98%	47%	89%	2.7%	100%	12%	27%	29%	31%	0.85%	39%	56%	98%	57%	20%	3.4%	55%	18%	67%	kinase still bound, per cent of control (PLK4 (human)): 3.2%; kinase still bound, per cent of control (FLT3 (human)): 35%; kinase still bound, per cent of control (PRKAA1 (human)): 22%; kinase still bound, per cent of control (BRSK1 (human)): 68%; kinase still bound, per cent of control (MARK1 (human)): 35%; kinase still bound, per cent of control [2]: 1.6%; kinase still bound, per cent of control (GRK4 (human)): 26%; kinase still bound, per cent of control (MAPK3 (human)): 64%; kinase still bound, per cent of control (STK35 (human)): 66%; kinase still bound, per cent of control (ADCK3 (human)): 63%; kinase still bound, per cent of control (TTK (human)): 26%; kinase still bound, per cent of control (TLK2 (human)): 89%; kinase still bound, per cent of control (MYO3A (human)): 58%; kinase still bound, per cent of control (MAP3K10 (human)): 93%; kinase still bound, per cent of control (CAMK2D (human)): 6.8%
CCN(CCO)CCCOc1ccc2c(Nc3cc(CC(=O)Nc4cccc(F)c4)[nH]n3)ncnc2c1	19%	100%	58%	100%	73%	100%	83%	82%	0%	98%	72%	100%	27%	100%	56%	40%	100%	100%	35%	100%	kinase still bound, per cent of control (PRKCH (human)): 100%; kinase still bound, per cent of control [3]: 100%; kinase still bound, per cent of control (TXK (human)): 100%; kinase still bound, per cent of control (PAK1 (human)): 100%; kinase still bound, per cent of control (FLT3 (human)): 0.4%; kinase still bound, per cent of control (PRKAA1 (human)): 64%; kinase still bound, per cent of control (BRSK1 (human)): 64%; kinase still bound, per cent of control (MARK1 (human)): 98%; kinase still bound, per cent of control (GRK4 (human)): 100%; kinase still bound, per cent of control (MAPK3 (human)): 100%; kinase still bound, per cent of control (STK35 (human)): 85%; kinase still bound, per cent of control (ADCK3 (human)): 85%; kinase still bound, per cent of control (TTK (human)): 49%; kinase still bound, per cent of control (TLK2 (human)): 100%; kinase still bound, per cent of control (MYO3A (human)): 81%; kinase still bound, per cent of control (MAP3K10 (human)): 92%; kinase still bound, per cent of control (CAMK2D (human)): 93%
O=c1[nH]c2ccccc2n1C1CCN(Cc2ccc(-c3nc4cc5[nH]cnc5cc4nc3-c3ccccc3)cc2)CC1	88%	100%	100%	100%	100%	84%	91%	100%	72%	100%	86%	100%	76%	85%	62%	93%	92%	100%	100%	100%	kinase still bound, per cent of control (PRKCH (human)): 69%; kinase still bound, per cent of control [3]: 89%; kinase still bound, per cent of control (TXK (human)): 87%; kinase still bound, per cent of control [4]: 53%; kinase still bound, per cent of control (PLK4 (human)): 60%; kinase still bound, per cent of control (PAK1 (human)): 90%; kinase still bound, per cent of control (PRKAA1 (human)): 72%; kinase still bound, per cent of control (BRSK1 (human)): 100%; kinase still bound, per cent of control (MARK1 (human)): 97%; kinase still bound, per cent of control [2]: 51%; kinase still bound, per cent of control (GRK4 (human)): 100%; kinase still bound, per cent of control (MAPK3 (human)): 100%; kinase still bound, per cent of control (STK35 (human)): 100%; kinase still bound, per cent of control (ADCK3 (human)): 100%; kinase still bound, per cent of control (TTK (human)): 100%; kinase still bound, per cent of control (TLK2 (human)): 100%; kinase still bound, per cent of control (MYO3A (human)): 100%; kinase still bound, per cent of control (MAP3K10 (human)): 84%; kinase still bound, per cent of control (CAMK2D (human)): 100%

Source: the kinase profiling compilation of Christmann-Franck et al. (2016)
